Our source for the Activity and Ki values is ChEMBL document CHEMBL1140524, “Facile one-pot synthesis of thio and selenourea derivatives: a new class of potent urease inhibitors” (Bioorg Med Chem Lett, 2007).

Active and inactive are the calls of the source. No cut-off for these calls is given here.

One may read the Ki as a measure of affinity in units of concentration, obtained from inhibition or displacement. A lower Ki goes with a stronger hold on the target.

In one test the target is Urease (Canavalia ensiformis) (UniProt P07374). Kind of test: (§1) Inhibition of jack bean urease.
Sequence of Urease (Canavalia ensiformis) (P07374 whole entry, looked up): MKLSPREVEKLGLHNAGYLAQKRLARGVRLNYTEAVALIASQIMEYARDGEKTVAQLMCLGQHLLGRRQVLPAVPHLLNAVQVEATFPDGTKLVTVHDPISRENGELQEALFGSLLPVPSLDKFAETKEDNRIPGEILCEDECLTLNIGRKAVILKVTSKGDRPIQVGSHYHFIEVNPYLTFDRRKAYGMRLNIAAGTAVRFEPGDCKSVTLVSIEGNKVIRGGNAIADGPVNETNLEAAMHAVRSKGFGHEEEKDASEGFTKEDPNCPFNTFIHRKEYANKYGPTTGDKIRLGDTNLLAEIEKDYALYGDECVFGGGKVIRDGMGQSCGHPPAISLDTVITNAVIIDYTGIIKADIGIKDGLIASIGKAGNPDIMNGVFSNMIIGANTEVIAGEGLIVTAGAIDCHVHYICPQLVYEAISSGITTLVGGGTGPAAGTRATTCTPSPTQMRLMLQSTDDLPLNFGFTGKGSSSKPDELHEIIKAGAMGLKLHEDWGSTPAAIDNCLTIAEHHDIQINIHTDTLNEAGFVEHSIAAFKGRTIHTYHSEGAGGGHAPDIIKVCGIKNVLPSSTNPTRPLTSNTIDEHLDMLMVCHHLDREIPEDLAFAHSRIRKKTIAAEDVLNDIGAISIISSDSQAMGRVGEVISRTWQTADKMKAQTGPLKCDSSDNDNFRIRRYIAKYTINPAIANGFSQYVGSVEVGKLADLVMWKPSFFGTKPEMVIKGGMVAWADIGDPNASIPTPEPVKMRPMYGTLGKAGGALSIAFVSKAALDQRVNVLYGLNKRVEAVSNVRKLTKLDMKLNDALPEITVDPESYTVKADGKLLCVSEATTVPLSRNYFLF
As for `CN(C)C(=[Se])N1CCOCC1`, the result was inactive.
On the same count and under the same terms, under `CN(C)C(=S)N1CCOCC1` stands “inactive”.

The target in another test is Urease (Canavalia ensiformis, UniProt P07374). Described as §1.
Sequence of Urease (P07374 whole entry): as the sequence (P07374 whole entry, looked up) above
In turn, `C[C@H](NC(=[Se])N(C)C)c1cccc2ccccc12` gave a Ki of 94 nM.
The same measure, in the same setting: the same measure for `CN(C)C(=S)Nc1ccc(Br)cc1`: 255 nM; for `CC(C)N(C(=[Se])N(C)C)C1CCCCC1`: 25 nM; for `CCCCCCCCCCCCNC(=S)N(C)C`: 124 nM.
Still for that read-out and setting: under `CN(C)C(=[Se])NCc1ccc(Br)cc1` stands 135 nM.
